Activity calls are given as the source filed them. No rule for the calls is given here.
Test system: CCRIS mutagenicity, Ames/micronucleus/aberration tests
Test: CCRIS mutagenicity studies
[1] = Test System: AMES SALMONELLA TYPHIMURIUM, Strain/Indicator: TA98, Metabolic Activation: NONE, Method: PREINCUBATION
[2] = Test System: AMES SALMONELLA TYPHIMURIUM, Strain/Indicator: TA98, Metabolic Activation: NONE, Method: STANDARD PLATE
[3] = Test System: AMES SALMONELLA TYPHIMURIUM, Strain/Indicator: TA100, Metabolic Activation: NONE, Method: PREINCUBATION
[4] = Test System: AMES SALMONELLA TYPHIMURIUM, Strain/Indicator: TA100, Metabolic Activation: NONE, Method: STANDARD PLATE
[5] = Test System: AMES SALMONELLA TYPHIMURIUM, Strain/Indicator: TA100, Metabolic Activation: RAT, LIVER, S-9, AROCLOR 1254, Method: PREINCUBATION

Measured: mutagenic call

C=C(C)[C@H]1CC=C(C)CC1
inactive: End Point: IN VITRO CHROMOSOMAL ABERRATIONS, Test System: CHO CELLS, Metabolic Activation: NONE inactive; negative | End Point: IN VITRO CHROMOSOMAL ABERRATIONS, Test System: CHO CELLS, Metabolic Activation: RAT, LIVER, S-9, AROCLOR 1254 inactive; negative | Test System: AMES SALMONELLA TYPHIMURIUM, Strain/Indicator: TA98, Metabolic Activation: HAMSTER, LIVER, S-9, AROCLOR 1254, Method: PREINCUBATION inactive; negative | [1] inactive; negative | [2] inactive; negative | Test System: AMES SALMONELLA TYPHIMURIUM, Strain/Indicator: TA98, Metabolic Activation: RAT, LIVER, S-9, AROCLOR 1254, Method: PREINCUBATION inactive; negative | Test System: AMES SALMONELLA TYPHIMURIUM, Strain/Indicator: TA98, Metabolic Activation: RAT, LIVER, S-9, AROCLOR, Method: STANDARD PLATE inactive; negative | Test System: AMES SALMONELLA TYPHIMURIUM, Strain/Indicator: TA100, Metabolic Activation: HAMSTER, LIVER, S-9, AROCLOR 1254, Method: PREINCUBATION inactive; negative | [3] inactive; negative | [4] inactive; negative | [5] inactive; negative | Test System: AMES SALMONELLA TYPHIMURIUM, Strain/Indicator: TA100, Metabolic Activation: RAT, LIVER, S-9, AROCLOR, Method: STANDARD PLATE inactive; negative | Test System: AMES SALMONELLA TYPHIMURIUM, Strain/Indicator: TA1535, Metabolic Activation: HAMSTER, LIVER, S-9, AROCLOR 1254, Method: PREINCUBATION inactive; negative | Test System: AMES SALMONELLA TYPHIMURIUM, Strain/Indicator: TA1535, Metabolic Activation: NONE, Method: PREINCUBATION inactive; negative | Test System: AMES SALMONELLA TYPHIMURIUM, Strain/Indicator: TA1535, Metabolic Activation: RAT, LIVER, S-9, AROCLOR 1254, Method: PREINCUBATION inactive; negative | Test System: AMES SALMONELLA TYPHIMURIUM, Strain/Indicator: TA1537, Metabolic Activation: HAMSTER, LIVER, S-9, AROCLOR 1254, Method: PREINCUBATION inactive; negative | Test System: AMES SALMONELLA TYPHIMURIUM, Strain/Indicator: TA1537, Metabolic Activation: NONE, Method: PREINCUBATION inactive; negative | Test System: AMES SALMONELLA TYPHIMURIUM, Strain/Indicator: TA1537, Metabolic Activation: RAT, LIVER, S-9, AROCLOR 1254, Method: PREINCUBATION inactive; negative | Test System: AMES SALMONELLA TYPHIMURIUM, Strain/Indicator: UTH8413, Metabolic Activation: NONE, Method: STANDARD PLATE inactive; negative | Test System: AMES SALMONELLA TYPHIMURIUM, Strain/Indicator: UTH8413, Metabolic Activation: RAT, LIVER, S-9, AROCLOR, Method: STANDARD PLATE inactive; negative | Test System: AMES SALMONELLA TYPHIMURIUM, Strain/Indicator: UTH8414, Metabolic Activation: NONE, Method: STANDARD PLATE inactive; negative | Test System: AMES SALMONELLA TYPHIMURIUM, Strain/Indicator: UTH8414, Metabolic Activation: RAT, LIVER, S-9, AROCLOR, Method: STANDARD PLATE inactive; negative | Test System: MOUSE LYMPHOMA, Strain/Indicator: L5178Y (TK+/TK-), Metabolic Activation: NONE, Method: SUSPENSION/PLATE inactive; negative
active: Test System: MOUSE LYMPHOMA, Strain/Indicator: L5178Y (TK+/TK-), Metabolic Activation: RAT, LIVER, S-9, AROCLOR 1254, Method: SUSPENSION/PLATE active; positive

O=[N+]([O-])c1ccc2c3c(cccc13)-c1cc3ccccc3cc1-2
active: [2] active; positive

Nc1ccc2c([nH]c3ccccc32)c1[N+](=O)[O-]
inactive: Test System: AMES SALMONELLA TYPHIMURIUM, Strain/Indicator: TA1977, Metabolic Activation: NONE, Method: STANDARD PLATE inactive; negative
active: [2] active; positive | Test System: AMES SALMONELLA TYPHIMURIUM, Strain/Indicator: TA98, Metabolic Activation: RAT, LIVER, S-9, PHENOBARBITAL, Method: STANDARD PLATE active; positive | [4] active; positive | Test System: AMES SALMONELLA TYPHIMURIUM, Strain/Indicator: TA100, Metabolic Activation: RAT, LIVER, S-9, PHENOBARBITAL, Method: STANDARD PLATE active; positive | Test System: AMES SALMONELLA TYPHIMURIUM, Strain/Indicator: TA1537, Metabolic Activation: NONE, Method: STANDARD PLATE active; positive | Test System: AMES SALMONELLA TYPHIMURIUM, Strain/Indicator: TA1537, Metabolic Activation: RAT, LIVER, S-9, PHENOBARBITAL, Method: STANDARD PLATE active; positive | Test System: AMES SALMONELLA TYPHIMURIUM, Strain/Indicator: TA1538, Metabolic Activation: NONE, Method: STANDARD PLATE active; positive | Test System: AMES SALMONELLA TYPHIMURIUM, Strain/Indicator: TA1538, Metabolic Activation: RAT, LIVER, S-9, PHENOBARBITAL, Method: STANDARD PLATE active; positive | Test System: AMES SALMONELLA TYPHIMURIUM, Strain/Indicator: TA1977, Metabolic Activation: RAT, LIVER, S-9, PHENOBARBITAL, Method: STANDARD PLATE active; positive

Cc1cc(Cc2ccc(N)c(C)c2)ccc1N
inactive: [1] inactive; negative | Test System: AMES SALMONELLA TYPHIMURIUM, Strain/Indicator: TA98, Metabolic Activation: RAT, LIVER, S-9, PCB, Method: PREINCUBATION inactive; negative | [3] inactive; negative | Test System: AMES SALMONELLA TYPHIMURIUM, Strain/Indicator: TA100, Metabolic Activation: RAT, LIVER, S-9, PCB, Method: PREINCUBATION inactive; negative

O=C(O)c1ccccc1[O-].O=C(O)c1ccccc1[O-].O=C(O)c1ccccc1[O-].[Cr+3]
inactive: Test System: AMES SALMONELLA TYPHIMURIUM, Strain/Indicator: TA92, Metabolic Activation: NONE, Method: STANDARD PLATE inactive; negative | Test System: AMES SALMONELLA TYPHIMURIUM, Strain/Indicator: TA94, Metabolic Activation: NONE, Method: STANDARD PLATE inactive; negative | [2] inactive; negative | [4] inactive; negative

O=C([O-])c1cccnc1Nc1cccc(C(F)(F)F)c1.O=C([O-])c1cccnc1Nc1cccc(C(F)(F)F)c1.OCc1cccnc1.OCc1cccnc1.[Cu+2]
inactive: Test System: AMES SALMONELLA TYPHIMURIUM, Strain/Indicator: TA97, Metabolic Activation: MOUSE, LIVER, S-9, Method: STANDARD PLATE inactive; negative | Test System: AMES SALMONELLA TYPHIMURIUM, Strain/Indicator: TA97, Metabolic Activation: NONE, Method: STANDARD PLATE inactive; negative | Test System: AMES SALMONELLA TYPHIMURIUM, Strain/Indicator: TA97, Metabolic Activation: RAT LIVER S-9, DELOR 103, Method: STANDARD PLATE inactive; negative | Test System: AMES SALMONELLA TYPHIMURIUM, Strain/Indicator: TA98, Metabolic Activation: MOUSE, LIVER, S-9, Method: STANDARD PLATE inactive; negative | [2] inactive; negative | Test System: AMES SALMONELLA TYPHIMURIUM, Strain/Indicator: TA98, Metabolic Activation: RAT LIVER S-9, DELOR 103, Method: STANDARD PLATE inactive; negative | Test System: AMES SALMONELLA TYPHIMURIUM, Strain/Indicator: TA100, Metabolic Activation: MOUSE, LIVER, S-9, Method: STANDARD PLATE inactive; negative | [4] inactive; negative | Test System: AMES SALMONELLA TYPHIMURIUM, Strain/Indicator: TA100, Metabolic Activation: RAT LIVER S-9, DELOR 103, Method: STANDARD PLATE inactive; negative | Test System: AMES SALMONELLA TYPHIMURIUM, Strain/Indicator: TA102, Metabolic Activation: MOUSE, LIVER, S-9, Method: STANDARD PLATE inactive; negative | Test System: AMES SALMONELLA TYPHIMURIUM, Strain/Indicator: TA102, Metabolic Activation: NONE, Method: STANDARD PLATE inactive; negative | Test System: AMES SALMONELLA TYPHIMURIUM, Strain/Indicator: TA102, Metabolic Activation: RAT LIVER S-9, DELOR 103, Method: STANDARD PLATE inactive; negative

c1ccc2c(c1)-c1cc3c(cc1C1NC21)-c1ccccc1C1NC31 (stereo not drawn)
active: [4] active; positive

Nc1ccc(N(c2ccc3ccccc3c2)c2ccc3ccccc3c2)cc1
inactive: [2] inactive; negative | Test System: AMES SALMONELLA TYPHIMURIUM, Strain/Indicator: TA98, Metabolic Activation: S-9, Method: STANDARD PLATE inactive; negative | [4] inactive; negative | Test System: AMES SALMONELLA TYPHIMURIUM, Strain/Indicator: TA100, Metabolic Activation: S-9, Method: STANDARD PLATE inactive; negative

N[C@@H](Cc1c[nH]c2ccc(O)cc12)C(=O)O
inactive: [3] inactive; negative

O=C/C=C/c1ccccc1[N+](=O)[O-]
active: [3] active; positive | [5] active; positive
